ChEMBL document CHEMBL5346972, “Discovery of HDAC6, HDAC8, and 6/8 Inhibitors and Development of Cell-Based Drug Screening Models for the Treatment of TGF-β-Induced Idiopathic Pulmonary Fibrosis” (J Med Chem, 2023)

Columns and labels:
in vitro [1] = conditions: human
NIH3T3 [2] = experiment: Antiproliferative activity against mouse NIH3T3 cells assessed as reduction in cell viability by measuring optimal working concentration incubated for 3 days by CCK-8 assay relative to control; type: functional; conditions: time 3 day
[3] = Antiproliferative activity against human Pulmonary fibroblast cells assessed as reduction in cell viability incubated for 3 days by CCK-8 assay; type: functional, cell-based; conditions: 72 h
Histone deacetylase 8 = molecular target: T1, Histone deacetylase 8 (Homo sapiens, UniProt Q9BY41); experiment: Inhibition of human HDAC8 expressed in baculovirus expression system in Sf9 cells using RHKAcKAc (379 to 382 residues) fluorogenic peptide as substrate and measured after 2 hrs by fluorescence based analysis
T1 sequence (Q9BY41 whole entry): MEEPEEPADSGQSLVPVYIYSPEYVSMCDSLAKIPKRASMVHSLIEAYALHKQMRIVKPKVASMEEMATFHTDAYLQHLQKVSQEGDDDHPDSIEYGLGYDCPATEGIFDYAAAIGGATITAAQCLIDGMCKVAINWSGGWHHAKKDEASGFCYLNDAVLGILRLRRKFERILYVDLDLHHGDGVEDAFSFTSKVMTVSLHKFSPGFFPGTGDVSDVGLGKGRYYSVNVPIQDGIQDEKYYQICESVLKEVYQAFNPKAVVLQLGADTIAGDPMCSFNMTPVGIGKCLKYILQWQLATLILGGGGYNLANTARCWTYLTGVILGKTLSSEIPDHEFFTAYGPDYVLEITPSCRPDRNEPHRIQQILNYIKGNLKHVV

Histone deacetylase 1 = Histone deacetylase 1 (Homo sapiens, UniProt Q13547); experiment: Inhibition of human HDAC1 expressed in baculovirus expression system in Sf9 cells using RHKKAc (379 to 382 residues) fluorogenic peptide as substrate and measured after 2 hrs by fluorescence based analysis
[4] = Antiproliferative activity against human Pulmonary fibroblast cells assessed as reduction in cell viability by measuring optimal working concentration incubated for 3 days by CCK-8 assay; type: functional; conditions: time 3 day
NIH3T3 [5] = experiment: Antiproliferative activity against mouse NIH3T3 cells assessed as reduction in cell viability incubated for 3 days by CCK-8 assay; type: functional, cell-based; conditions: NIH3T3, 72 h
[6] = molecular target: T2, Protein deacetylase HDAC6 (Homo sapiens, UniProt Q9UBN7); experiment: Inhibition of human HDAC6 expressed in baculovirus expression system in Sf9 cells using RHKKAc (379 to 382 residues) fluorogenic peptide as substrate and measured after 2 hrs by fluorescence based analysis
T2 sequence (Q9UBN7 whole entry): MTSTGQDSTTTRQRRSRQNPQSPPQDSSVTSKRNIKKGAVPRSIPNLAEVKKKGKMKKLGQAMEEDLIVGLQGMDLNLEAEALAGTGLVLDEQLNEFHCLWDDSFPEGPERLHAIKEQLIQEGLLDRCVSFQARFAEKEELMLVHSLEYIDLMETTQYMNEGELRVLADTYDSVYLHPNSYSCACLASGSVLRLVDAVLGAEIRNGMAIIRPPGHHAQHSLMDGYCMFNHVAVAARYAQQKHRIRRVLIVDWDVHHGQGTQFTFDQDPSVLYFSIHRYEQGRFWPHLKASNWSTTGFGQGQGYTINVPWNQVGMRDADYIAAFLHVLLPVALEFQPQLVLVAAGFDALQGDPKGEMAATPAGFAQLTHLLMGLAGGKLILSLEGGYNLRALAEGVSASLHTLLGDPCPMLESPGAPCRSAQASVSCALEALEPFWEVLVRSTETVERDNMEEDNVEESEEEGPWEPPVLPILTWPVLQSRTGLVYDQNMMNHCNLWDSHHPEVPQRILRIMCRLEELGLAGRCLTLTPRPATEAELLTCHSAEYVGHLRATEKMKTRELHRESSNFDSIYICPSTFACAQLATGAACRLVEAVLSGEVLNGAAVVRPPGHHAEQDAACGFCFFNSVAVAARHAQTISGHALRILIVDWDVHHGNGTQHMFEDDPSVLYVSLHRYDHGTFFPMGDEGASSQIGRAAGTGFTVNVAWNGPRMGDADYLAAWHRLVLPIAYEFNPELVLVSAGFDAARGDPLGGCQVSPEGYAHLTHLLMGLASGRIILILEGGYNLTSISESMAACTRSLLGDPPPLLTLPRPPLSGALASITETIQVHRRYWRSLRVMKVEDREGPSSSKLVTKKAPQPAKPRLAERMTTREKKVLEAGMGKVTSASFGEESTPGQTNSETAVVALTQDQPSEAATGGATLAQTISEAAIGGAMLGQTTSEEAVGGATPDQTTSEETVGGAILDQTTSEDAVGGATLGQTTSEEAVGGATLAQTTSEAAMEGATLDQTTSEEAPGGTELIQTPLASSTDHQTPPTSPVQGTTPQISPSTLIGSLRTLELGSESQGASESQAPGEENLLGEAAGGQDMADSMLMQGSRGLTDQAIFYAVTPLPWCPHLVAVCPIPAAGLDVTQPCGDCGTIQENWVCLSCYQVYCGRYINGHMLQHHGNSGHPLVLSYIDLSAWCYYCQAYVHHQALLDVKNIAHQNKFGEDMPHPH

in vitro [7] = conditions: human; remark: listed apart in the source
[8] = Metabolic stability in human liver microsomes assessed as parent compound remaining at 200 uM preincubated for 5 mins followed by NADPH and measured at 60 mins by LC-MS/MS analysis
in vitro [9] = conditions: human, Caco-2
Description: Apparent permeability across apical to basolateral side in human Caco-2 cells at 10 uM preincubated for 10mins followed by compound addition and measured after 90 mins by LC-MS/MS analysis

Histone deacetylase 9 = Histone deacetylase 9 (Homo sapiens, UniProt Q9UKV0); experiment: Inhibition of human HDAC9 expressed in baculovirus expression system in Sf9 cells using Boc-Lys(trifluoroacetyl)-AMC fluorogenic peptide as substrate and measured after 2 hrs by fluorescence based analysis
Histone deacetylase 11 = molecular target: T3, Histone deacetylase 11 (Homo sapiens, UniProt Q96DB2); experiment: Inhibition of human HDAC11 expressed in baculovirus expression system in Sf9 cells using Boc-Lys(trifluoroacetyl)-AMC fluorogenic peptide as substrate and measured after 2 hrs by fluorescence based analysis
T3 sequence (Q96DB2 whole entry): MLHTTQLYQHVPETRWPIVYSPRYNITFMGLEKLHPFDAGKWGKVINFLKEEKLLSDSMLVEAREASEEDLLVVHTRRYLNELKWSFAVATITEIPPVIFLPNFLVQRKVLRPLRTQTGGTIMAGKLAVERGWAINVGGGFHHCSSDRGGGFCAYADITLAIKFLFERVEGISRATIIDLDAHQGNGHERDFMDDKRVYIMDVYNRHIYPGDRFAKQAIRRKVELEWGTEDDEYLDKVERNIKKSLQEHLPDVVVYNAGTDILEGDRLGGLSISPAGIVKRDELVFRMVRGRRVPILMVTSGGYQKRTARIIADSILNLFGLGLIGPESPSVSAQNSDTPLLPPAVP

Histone deacetylase 4 = Histone deacetylase 4 (Homo sapiens, UniProt P56524); experiment: Inhibition of human HDAC4 expressed in baculovirus expression system in Sf9 cells using Boc-Lys(trifluoroacetyl)-AMC fluorogenic peptide as substrate and measured after 2 hrs by fluorescence based analysis
Histone deacetylase 3 = Histone deacetylase 3 (Homo sapiens, UniProt O15379); experiment: Inhibition of human HDAC3 expressed in baculovirus expression system in Sf9 cells using RHKKAc (379 to 382 residues) fluorogenic peptide as substrate and measured after 2 hrs by fluorescence based analysis
Histone deacetylase 2 = Histone deacetylase 2 (Homo sapiens, UniProt Q92769); experiment: Inhibition of human HDAC2 expressed in baculovirus expression system in Sf9 cells using RHKKAc (379 to 382 residues) fluorogenic peptide as substrate and measured after 2 hrs by fluorescence based analysis
Histone deacetylase 5 = Histone deacetylase 5 (Homo sapiens, UniProt Q9UQL6); experiment: Inhibition of human HDAC5 expressed in baculovirus expression system in Sf9 cells using Boc-Lys(trifluoroacetyl)-AMC fluorogenic peptide as substrate and measured after 2 hrs by fluorescence based analysis
Chain of Histone deacetylase 5 (Q9UQL6 whole entry): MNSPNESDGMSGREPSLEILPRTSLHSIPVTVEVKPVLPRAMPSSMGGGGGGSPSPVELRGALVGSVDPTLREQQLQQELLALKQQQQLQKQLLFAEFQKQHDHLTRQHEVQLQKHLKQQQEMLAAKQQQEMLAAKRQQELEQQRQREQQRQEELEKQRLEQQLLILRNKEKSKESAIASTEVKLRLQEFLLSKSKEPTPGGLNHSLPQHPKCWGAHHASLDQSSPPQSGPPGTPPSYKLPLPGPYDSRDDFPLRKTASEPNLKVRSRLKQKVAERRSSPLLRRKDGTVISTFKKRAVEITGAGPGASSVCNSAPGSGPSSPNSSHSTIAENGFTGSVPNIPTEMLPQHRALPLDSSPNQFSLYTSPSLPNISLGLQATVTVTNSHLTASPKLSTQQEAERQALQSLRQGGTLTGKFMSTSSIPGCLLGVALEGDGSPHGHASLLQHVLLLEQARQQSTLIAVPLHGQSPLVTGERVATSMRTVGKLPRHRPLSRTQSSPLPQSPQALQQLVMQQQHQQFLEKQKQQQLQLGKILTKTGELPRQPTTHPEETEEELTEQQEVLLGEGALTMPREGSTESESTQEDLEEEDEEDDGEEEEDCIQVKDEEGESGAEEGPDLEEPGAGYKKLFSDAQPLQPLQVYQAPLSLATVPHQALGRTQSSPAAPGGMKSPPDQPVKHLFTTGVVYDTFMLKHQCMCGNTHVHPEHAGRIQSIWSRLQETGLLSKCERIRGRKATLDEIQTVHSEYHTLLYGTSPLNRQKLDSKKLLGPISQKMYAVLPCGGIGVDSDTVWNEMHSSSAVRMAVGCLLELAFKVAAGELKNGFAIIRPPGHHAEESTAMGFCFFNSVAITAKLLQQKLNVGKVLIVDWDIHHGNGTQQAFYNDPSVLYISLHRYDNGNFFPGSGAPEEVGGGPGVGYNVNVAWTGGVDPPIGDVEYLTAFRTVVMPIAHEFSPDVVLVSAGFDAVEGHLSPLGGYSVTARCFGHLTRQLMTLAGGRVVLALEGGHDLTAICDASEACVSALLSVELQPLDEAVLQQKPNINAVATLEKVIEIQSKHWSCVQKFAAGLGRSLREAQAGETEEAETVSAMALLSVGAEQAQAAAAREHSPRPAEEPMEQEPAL

Chain of Histone deacetylase 1 (Q13547 whole entry, the tested form may be a part): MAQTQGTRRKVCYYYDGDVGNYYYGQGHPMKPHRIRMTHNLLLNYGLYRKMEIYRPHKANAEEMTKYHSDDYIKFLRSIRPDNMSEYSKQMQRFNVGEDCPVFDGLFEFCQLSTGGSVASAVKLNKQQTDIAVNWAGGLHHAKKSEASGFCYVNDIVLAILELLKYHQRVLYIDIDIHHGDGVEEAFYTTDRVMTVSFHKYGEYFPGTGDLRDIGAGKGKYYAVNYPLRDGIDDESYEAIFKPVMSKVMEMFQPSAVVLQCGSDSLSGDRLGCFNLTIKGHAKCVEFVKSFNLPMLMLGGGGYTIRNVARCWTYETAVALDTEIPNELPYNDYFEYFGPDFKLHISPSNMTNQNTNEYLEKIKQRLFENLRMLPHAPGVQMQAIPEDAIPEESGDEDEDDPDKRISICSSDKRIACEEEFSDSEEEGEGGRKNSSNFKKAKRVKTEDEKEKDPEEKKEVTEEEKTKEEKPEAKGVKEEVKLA
Chain of Histone deacetylase 2 (Q92769 whole entry, the tested form may be a part): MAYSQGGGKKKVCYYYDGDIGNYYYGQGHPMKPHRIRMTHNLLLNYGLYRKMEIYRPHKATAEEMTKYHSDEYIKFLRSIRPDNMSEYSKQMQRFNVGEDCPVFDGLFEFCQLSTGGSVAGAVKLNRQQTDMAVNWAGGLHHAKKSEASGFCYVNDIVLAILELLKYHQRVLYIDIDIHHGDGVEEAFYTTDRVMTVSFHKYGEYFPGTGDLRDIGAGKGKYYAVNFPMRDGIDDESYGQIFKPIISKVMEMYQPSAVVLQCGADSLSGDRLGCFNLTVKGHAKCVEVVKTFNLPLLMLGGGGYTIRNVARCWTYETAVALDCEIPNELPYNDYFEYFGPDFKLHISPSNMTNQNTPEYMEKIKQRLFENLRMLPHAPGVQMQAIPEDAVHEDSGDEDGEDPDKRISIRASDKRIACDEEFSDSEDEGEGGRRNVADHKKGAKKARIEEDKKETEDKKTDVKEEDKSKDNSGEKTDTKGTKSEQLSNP
Chain of Histone deacetylase 4 (P56524 whole entry, the tested form may be a part): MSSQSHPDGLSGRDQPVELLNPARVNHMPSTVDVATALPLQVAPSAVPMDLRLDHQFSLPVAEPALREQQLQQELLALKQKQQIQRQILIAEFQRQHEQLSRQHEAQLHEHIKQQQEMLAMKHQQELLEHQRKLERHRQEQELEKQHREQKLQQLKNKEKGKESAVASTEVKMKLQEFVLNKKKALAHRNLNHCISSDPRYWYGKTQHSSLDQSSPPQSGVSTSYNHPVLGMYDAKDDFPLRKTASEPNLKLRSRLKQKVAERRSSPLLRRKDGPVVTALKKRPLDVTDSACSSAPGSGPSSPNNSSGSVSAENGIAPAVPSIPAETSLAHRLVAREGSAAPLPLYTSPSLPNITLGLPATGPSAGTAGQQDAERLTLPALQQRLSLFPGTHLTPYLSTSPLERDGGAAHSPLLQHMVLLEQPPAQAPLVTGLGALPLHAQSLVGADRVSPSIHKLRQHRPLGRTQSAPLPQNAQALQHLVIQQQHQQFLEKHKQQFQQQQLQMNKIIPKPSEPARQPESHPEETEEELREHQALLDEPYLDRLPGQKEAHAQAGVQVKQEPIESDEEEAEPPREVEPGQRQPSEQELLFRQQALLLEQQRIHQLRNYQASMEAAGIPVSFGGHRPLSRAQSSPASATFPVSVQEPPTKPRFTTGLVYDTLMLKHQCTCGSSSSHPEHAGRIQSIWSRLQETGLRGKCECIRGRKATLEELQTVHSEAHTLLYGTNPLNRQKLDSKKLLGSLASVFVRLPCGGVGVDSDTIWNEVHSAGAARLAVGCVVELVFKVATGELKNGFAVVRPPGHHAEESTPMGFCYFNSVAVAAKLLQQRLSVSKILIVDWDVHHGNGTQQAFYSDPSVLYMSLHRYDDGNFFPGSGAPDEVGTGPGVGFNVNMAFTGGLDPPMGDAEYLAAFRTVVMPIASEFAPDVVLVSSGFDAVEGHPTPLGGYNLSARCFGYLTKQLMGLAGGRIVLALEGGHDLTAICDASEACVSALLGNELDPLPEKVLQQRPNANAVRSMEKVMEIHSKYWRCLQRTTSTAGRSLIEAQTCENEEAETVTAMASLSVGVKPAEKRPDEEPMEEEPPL
Chain of Histone deacetylase 3 (O15379 whole entry, the tested form may be a part): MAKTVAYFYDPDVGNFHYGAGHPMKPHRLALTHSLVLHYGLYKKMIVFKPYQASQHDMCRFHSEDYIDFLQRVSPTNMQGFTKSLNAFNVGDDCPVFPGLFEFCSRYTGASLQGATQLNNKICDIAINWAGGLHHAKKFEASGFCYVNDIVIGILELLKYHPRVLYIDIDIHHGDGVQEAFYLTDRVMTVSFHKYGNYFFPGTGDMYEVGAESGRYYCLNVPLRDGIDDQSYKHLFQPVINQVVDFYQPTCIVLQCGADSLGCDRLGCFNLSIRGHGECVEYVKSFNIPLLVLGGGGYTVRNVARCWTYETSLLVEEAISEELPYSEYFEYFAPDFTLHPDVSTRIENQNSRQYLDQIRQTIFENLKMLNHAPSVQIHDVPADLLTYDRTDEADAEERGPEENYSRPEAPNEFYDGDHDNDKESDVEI
Chain of Histone deacetylase 9 (Q9UKV0 whole entry): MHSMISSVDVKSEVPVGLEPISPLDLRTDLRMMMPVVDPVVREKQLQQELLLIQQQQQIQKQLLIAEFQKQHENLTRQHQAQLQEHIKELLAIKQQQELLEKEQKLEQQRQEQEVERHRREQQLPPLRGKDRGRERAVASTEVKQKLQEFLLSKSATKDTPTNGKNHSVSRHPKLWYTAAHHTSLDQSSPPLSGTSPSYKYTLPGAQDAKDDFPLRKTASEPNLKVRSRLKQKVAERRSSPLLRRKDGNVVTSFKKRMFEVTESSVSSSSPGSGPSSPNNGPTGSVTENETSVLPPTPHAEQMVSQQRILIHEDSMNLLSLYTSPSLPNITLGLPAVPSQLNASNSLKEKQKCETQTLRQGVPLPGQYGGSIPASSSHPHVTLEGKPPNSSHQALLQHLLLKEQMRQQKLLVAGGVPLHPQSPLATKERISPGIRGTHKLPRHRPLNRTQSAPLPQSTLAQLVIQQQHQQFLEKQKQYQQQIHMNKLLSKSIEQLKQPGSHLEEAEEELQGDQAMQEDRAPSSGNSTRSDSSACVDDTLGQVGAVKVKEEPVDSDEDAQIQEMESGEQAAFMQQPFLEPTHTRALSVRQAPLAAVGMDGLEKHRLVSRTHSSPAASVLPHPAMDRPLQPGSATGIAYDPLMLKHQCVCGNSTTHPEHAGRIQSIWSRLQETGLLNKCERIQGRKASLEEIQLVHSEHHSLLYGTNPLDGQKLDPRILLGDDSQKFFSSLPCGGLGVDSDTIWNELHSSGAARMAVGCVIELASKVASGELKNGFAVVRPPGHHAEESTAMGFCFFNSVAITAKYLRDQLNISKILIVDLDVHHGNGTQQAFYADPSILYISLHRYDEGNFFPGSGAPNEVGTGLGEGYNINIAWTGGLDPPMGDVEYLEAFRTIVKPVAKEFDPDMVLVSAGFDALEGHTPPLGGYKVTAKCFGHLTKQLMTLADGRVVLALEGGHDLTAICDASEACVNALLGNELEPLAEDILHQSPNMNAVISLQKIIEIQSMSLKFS

Compound	MEC (NIH3T3 [2])	IC50 [3]	IC50 (Histone deacetylase 8)	IC50 (Histone deacetylase 1)	MEC [4]	IC50 (NIH3T3 [5])	IC50 [6]	further results
Cc1nc2ccc(/C=C/CC(=O)NO)cc2c(=O)n1-c1ccccc1	10 µM	> 40000 nM	3730 nM	17300 nM	10 µM	> 40000 nM	168 nM	half-life at 1 h, 200 µM (in vitro [1]; microsomes): > 3.11 h; CLint scaled at 1 h, 200 µM (in vitro [7]; microsomes): < 6.1 mL/min/kg; remaining at 1 h, 200 µM ([8]; microsomes): 84.3%
O=C(CCn1c(=O)n(Cc2ccccc2)c(=O)c2ccc(Cl)cc21)NO	2.9 µM	–	–	> 10000 nM	–	9120 nM	47 nM	–
O=C(NO)c1ccc(Cn2c(=O)n(CCc3ccccc3)c(=O)c3ccccc32)c(F)c1	0.73 µM	–	255 nM	14500 nM	–	10100 nM	108 nM	–
O=C(NO)c1ccc(Cn2c(=O)[nH]c(=O)c3c(Cl)cccc32)cc1	12 µM	–	281 nM	3320 nM	–	23300 nM	13 nM	–
O=C(CS)Nc1ccc(Cn2c(=O)[nH]c(=O)c3cccc(Cl)c32)cc1	–	–	–	–	–	–	5.3 nM	–
O=C(NO)c1ccc(/C=C/c2nc3ccccc3c(=O)[nH]2)cc1	2.27 µM	> 40000 nM	325 nM	16200 nM	10 µM	5020 nM	28 nM	half-life at 1 h, 200 µM (in vitro [1]; liver microsomes): 1.26 h; Papp A→B at 1.5 h, 10 µM (in vitro [9]): 0.3 ×10⁻⁶ cm/s; CLint scaled at 1 h, 200 µM (in vitro [7]; liver microsomes): 10.5 mL/min/kg; remaining at 1 h, 200 µM ([8]; liver microsomes): 58.1%
O=C(NO)c1cccc(Cn2c(=O)[nH]c(=O)c3cccc(Cl)c32)c1	10 µM	–	966 nM	> 30000 nM	–	> 40000 nM	5950 nM	–
CCc1nc2ccc(/C=C/CC(=O)NO)cc2c(=O)n1-c1ccccc1	10 µM	–	3690 nM	15900 nM	–	> 40000 nM	285 nM	–
Cn1c(CCC(=O)NO)nc2ccccc2c1=O	–	–	10400 nM	> 30000 nM	–	–	22000 nM	–
N#Cc1ccc2c(=O)n(CCc3ccccc3)c(=O)n(Cc3ccc(C(=O)NO)cc3)c2c1	4.5 µM	–	130 nM	–	–	735000 nM	–	–
O=C(NO)c1ccc(-c2nc3ccccc3c(=O)[nH]2)cc1	10 µM	> 40000 nM	1620 nM	> 30000 nM	5 µM	> 40000 nM	317 nM	–
O=C(NO)c1ccc(Cn2c(=O)[nH]c(=O)c3cccc(Cl)c32)cc1	9.7 µM	8820 nM	137 nM	190 nM	10 µM	18600 nM	10 nM	half-life at 1 h, 200 µM (in vitro [1]; liver microsomes): > 3.11 h; IC50 (Histone deacetylase 9): 431 nM; IC50 (Histone deacetylase 11): 812 nM; IC50 (Histone deacetylase 4): 516 nM; Papp A→B at 1.5 h, 10 µM (in vitro [9]): 1.4 ×10⁻⁶ cm/s; IC50 (Histone deacetylase 3): 302 nM; CLint scaled at 1 h, 200 µM (in vitro [7]; liver microsomes): < 6.1 mL/min/kg; IC50 (Histone deacetylase 2): 378 nM; IC50 (Histone deacetylase 5): 211 nM; remaining at 1 h, 200 µM ([8]; liver microsomes): 100%
COc1ccc2c(c1)[C@]13CCCC[C@@H]1[C@H](C2)N(C)CC3 [DEXTROMETHORPHAN]	–	–	–	–	–	–	–	half-life at 1 h, 200 µM (in vitro [1]; liver microsomes): 0.582 h; CLint scaled at 1 h, 200 µM (in vitro [7]; liver microsomes): 14.3 mL/min/kg; remaining at 1 h, 200 µM ([8]; liver microsomes): 30.4%
